# Assays:
# [1] = tested on: control sera (pooled serum of ten healthy LUMC hospital workers; commercial negative donor pooled serum from the Dutch bloodbank); type: binding, human; parameters: Binding of Control serum LUMC to linear peptides / Binding of Control serum Blood-bank to linear peptides / Binding of Control serum LUMC to looped peptides / Binding of Control Serum Blood-Bank to Looped peptides / Binding of Control serum LUMC to linear peptides of the protein M of SARS-CoV Urbani / Binding of Control serum Blood-bank to linear peptides of the protein M of SARS-CoV Urbani / Binding of Control serum LUMC to looped peptides of the protein M of SARS-CoV Urbani / Binding of Control Serum Blood-Bank to Looped peptides of the protein M of SARS-CoV Urbani: unit not given here
# [2] = tested on: antibodies in sera from SARS patients (sera 1a, 1b, 2, 6, 37, 62, London, SARS-yellow, SARS-green); type: binding, human; parameters: Binding of serum 6 to linear peptides of protein X1 of SARS-CoV Urbani / Binding of serum 37 to linear peptides of protein X1 of SARS-CoV Urbani / Binding of serum 6 to looped/cyclic peptide (PEPSCAN-ELISA) / Binding of serum 37 to looped/cyclic peptide (PEPSCAN-ELISA) / Binding of serum 37 to looped/cyclic peptides of protein X1 of SARS-CoV Urbani / Binding of serum 6 to linear peptides of protein X2 / Binding of serum 37 to linear peptides of protein X2 / Binding of serum 37 to looped/cyclic peptides of protein X2 of SARS-CoV Urbani / Binding of serum 6 to linear peptides of protein M of SARS-CoV Urbani / Binding of serum 37 to linear peptides of protein M of SARS-CoV Urbani / Binding of serum 6 to looped/cyclic peptides of protein M of SARS-CoV Urbani / Binding of serum 37 to looped/cyclic peptides of protein M of SARS-CoV Urbani / Binding of serum 6 to linear peptides of protein X3 of SARS-CoV Urbani / Binding of serum 37 to linear peptides of protein X3 of SARS-CoV Urbani / Binding of serum 37 to looped/cyclic peptides of protein X3 of SARS-CoV Urbani / Binding of serum 6 to linear peptides of protein X4 of SARS-CoV Urbani / Binding of serum 37 to linear peptides of protein X4 of SARS-CoV Urbani / Binding of serum 37 to looped/cyclic peptides of protein X4 of SARS-CoV Urbani / Binding of serum 6 to linear peptides of protein X5 of SARS-CoV Urbani / Binding of serum 37 to linear peptides of protein X5 of SARS-CoV Urbani / Binding of serum 37 to looped/cyclic peptides of protein X5 of SARS-CoV Urbani / Binding of serum 6 to linear peptides of protein N of SARS-CoV Urbani / Binding of serum 37 to linear peptides of protein N of SARS-CoV Urbani / Binding of serum 6 to linear peptide (PEPSCAN-ELISA) / Binding of serum 1a to looped/cyclic peptides of protein N of SARS-CoV Urbani / Binding of serum 1b to looped/cyclic peptides of protein N of SARS-CoV Urbani / Binding of serum 2 to looped/cyclic peptides of protein N of SARS-CoV Urbani / Binding of serum 6 to looped/cyclic peptides of protein N of SARS-CoV Urbani / Binding of serum 37 to looped/cyclic peptides of protein N of SARS-CoV Urbani / Binding of serum 62 to looped/cyclic peptides of protein N of SARS-CoV Urbani / Binding of serum London to looped/cyclic peptides of protein N of SARS-CoV Urbani / Binding of serum SARS-green to looped/cyclic peptides of protein N of SARS-CoV Urbani: unit not given here
# [3] = tested on: rabbit serum obtained by immunizing a rabbit with the SARS-CoV strain Frankfurt 1; type: binding; parameters: Binding of a rabbit serum to linear peptides / Binding of a rabbit serum to looped peptides / Rabbit serum linear peptides / Rabbit serum looped peptides / Binding of a rabbit serum to linear peptides of protein N of SARS-CoV Urbani (Rabbit serum linear peptides) / Binding of a rabbit serum to looped/cyclic peptides of protein N of SARS-CoV Urbani (Rabbit serum looped peptides): unit not given here
sequence,measurement,setting,value
ITVSQIQLSLLKVTA,Binding of Control Serum Blood-Bank to Looped peptides,[1],0.6
same,Binding of Control serum Blood-bank to linear peptides,[1],0.5
same,Binding of Control serum LUMC to linear peptides,[1],0.6
same,Binding of Control serum LUMC to looped peptides,[1],0.7
same,Binding of serum 1a to linear peptides of protein X2,[2],0.6
same,Binding of serum 1a to looped/cyclic peptides of protein X2 of SARS-CoV Urbani,[2],0.5
same,Binding of serum 1b to linear peptides of protein X2,[2],0.5
same,Binding of serum 1b to looped/cyclic peptides of protein X2 of SARS-CoV Urbani,[2],0.5
same,Binding of serum 2 to linear peptides of protein X2,[2],0.4
same,Binding of serum 2 to looped/cyclic peptides of protein X2 of SARS-CoV Urbani,[2],0.4
same,Binding of serum 6 to linear peptides of protein X2,[2],0.5
same,Binding of serum 6 to looped/cyclic peptides of protein X2 of SARS-CoV Urbani,[2],1.4
same,Binding of serum 37 to linear peptides of protein X2,[2],0.6
same,Binding of serum 37 to looped/cyclic peptides of protein X2 of SARS-CoV Urbani,[2],0.5
same,Binding of serum 62 to linear peptides of protein X2,[2],0.4
same,Binding of serum 62 to looped/cyclic peptides of protein X2 of SARS-CoV Urbani,[2],0.5
same,Binding of serum London to linear peptides of protein X2,[2],0.4
same,Binding of serum London to looped/cyclic peptides of protein X2 of SARS-CoV Urbani,[2],1.4
same,Binding of serum SARS-green to linear peptides of protein X2,[2],0.1
same,Binding of serum SARS-green to looped/cyclic peptides of protein X2 of SARS-CoV Urbani,[2],0.3
same,Binding of serum SARS-yellow to linear peptides of protein X2,[2],0.7
same,Binding of serum SARS-yellow to looped/cyclic peptides of protein X2 of SARS-CoV Urbani,[2],0.6
same,Binding of a rabbit serum to linear peptides,[3],0.7
same,Binding of a rabbit serum to looped peptides,[3],0.4
ARSVSPKLFIRQEEV,Binding of Control Serum Blood-Bank to Looped peptides,[1],0.7
same,Binding of Control serum Blood-bank to linear peptides,[1],0.7
same,Binding of Control serum LUMC to linear peptides,[1],0.6
same,Binding of Control serum LUMC to looped peptides,[1],0.7
same,Binding of serum 1a to linear peptides of protein X4 of SARS-CoV Urbani,[2],0.7
same,Binding of serum 1a to looped/cyclic peptides of protein X4 of SARS-CoV Urbani,[2],0.8
same,Binding of serum 1b to linear peptides of protein X4 of SARS-CoV Urbani,[2],0.6
same,Binding of serum 1b to looped/cyclic peptides of protein X4 of SARS-CoV Urbani,[2],0.5
same,Binding of serum 2 to linear peptides of protein X4 of SARS-CoV Urbani,[2],0.5
same,Binding of serum 2 to looped/cyclic peptides of protein X4 of SARS-CoV Urbani,[2],0.7
same,Binding of serum 6 to linear peptides of protein X4 of SARS-CoV Urbani,[2],0.6
same,Binding of serum 6 to looped/cyclic peptides of protein X4 of SARS-CoV Urbani,[2],0.5
same,Binding of serum 37 to linear peptides of protein X4 of SARS-CoV Urbani,[2],0.7
same,Binding of serum 37 to looped/cyclic peptides of protein X4 of SARS-CoV Urbani,[2],0.7
same,Binding of serum 62 to linear peptides of protein X4 of SARS-CoV Urbani,[2],0.7
same,Binding of serum 62 to looped/cyclic peptides of protein X4 of SARS-CoV Urbani,[2],0.6
same,Binding of serum London to linear peptides of protein X4 of SARS-CoV Urbani,[2],0.7
same,Binding of serum London to looped/cyclic peptides of protein X4 of SARS-CoV Urbani,[2],0.3
same,Binding of serum SARS-green to linear peptides of protein X4 of SARS-CoV Urbani,[2],0.6
same,Binding of serum SARS-green to looped/cyclic peptides of protein X4 of SARS-CoV Urbani,[2],0.6
same,Binding of serum SARS-yellow to linear peptides of protein X4 of SARS-CoV Urbani,[2],0.1
same,Binding of serum SARS-yellow to looped/cyclic peptides of protein X4 of SARS-CoV Urbani,[2],0.5
same,Rabbit serum linear peptides,[3],0.3
same,Rabbit serum looped peptides,[3],0.2
IVGLMWLSYFVASFR,Binding of Control Serum Blood-Bank to Looped peptides of the protein M of SARS-CoV Urbani,[1],0.7
same,Binding of Control serum Blood-bank to linear peptides of the protein M of SARS-CoV Urbani,[1],0.5
same,Binding of Control serum LUMC to linear peptides of the protein M of SARS-CoV Urbani,[1],0.2
same,Binding of Control serum LUMC to looped peptides of the protein M of SARS-CoV Urbani,[1],0.6
same,Binding of serum 1a to linear peptides of protein M of SARS-CoV Urbani,[2],0.6
same,Binding of serum 1a to looped/cyclic peptides of protein M of SARS-CoV Urbani,[2],0.7
same,Binding of serum 1b to linear peptides of protein M of SARS-CoV Urbani,[2],0.4
same,Binding of serum 1b to looped/cyclic peptides of protein M of SARS-CoV Urbani,[2],0.5
same,Binding of serum 2 to linear peptides of protein M of SARS-CoV Urbani,[2],0.5
same,Binding of serum 2 to looped/cyclic peptides of protein M of SARS-CoV Urbani,[2],1.0
same,Binding of serum 6 to linear peptides of protein M of SARS-CoV Urbani,[2],0.3
same,Binding of serum 6 to looped/cyclic peptides of protein M of SARS-CoV Urbani,[2],0.7
same,Binding of serum 37 to linear peptides of protein M of SARS-CoV Urbani,[2],0.5
same,Binding of serum 37 to looped/cyclic peptides of protein M of SARS-CoV Urbani,[2],0.7
same,Binding of serum 62 to linear peptides of protein M of SARS-CoV Urbani,[2],0.7
same,Binding of serum 62 to looped/cyclic peptides of protein M of SARS-CoV Urbani,[2],0.7
same,Binding of serum London to linear peptides of protein M of SARS-CoV Urbani,[2],0.3
same,Binding of serum London to looped/cyclic peptides of protein M of SARS-CoV Urbani,[2],0.2
same,Binding of serum SARS-green to linear peptides of protein M of SARS-CoV Urbani,[2],0.2
same,Binding of serum SARS-green to looped/cyclic peptides of protein M of SARS-CoV Urbani,[2],0.1
same,Binding of serum SARS-yellow to linear peptides of protein M of SARS-CoV Urbani,[2],0.1
same,Binding of serum SARS-yellow to looped/cyclic peptides of protein M of SARS-CoV Urbani,[2],0.6
same,Rabbit serum linear peptides,[3],0.3
same,Rabbit serum looped peptides,[3],0.5
